Measurements reported in paper PMC2993481, “Rat cytochromes P450 oxidize 3-aminobenzanthrone, a human metabolite of the carcinogenic environmental pollutant 3-nitrobenzanthrone” (Interdisciplinary Toxicology, 2010).
Values belong to the compound of their own block, whether it stands above or below them.

Assays:
[1] = set-up: method as in Seidel et al., [2002]; conditions: smoking and nonsmoking salt mining workers exposed to diesel emissions; ref Seidel et al., [2002]; cited from earlier work
[2] = test system: rat hepatic CYP enzymes in microsomes; test: Oxidation of 3-ABA by rat hepatic microsomes, metabolites separated by HPLC; assay type: in vitro ADME; conditions: NADPH, 37 °C
Procedure: (§1) The study was conducted in accordance with the Regulations for the Care and Use of Laboratory Animals (311/1997, Ministry of Agriculture, Czech Republic), which complies with Declaration of Helsinki. Microsomes from livers of ten male untreated Wistar rats and those of rats pretreated with β-NF (Sigma, UK) and PB were prepared by the procedure described previously (Stiborová et al., [2002]). Rat liver microsomes contained 0.6 nmol CYP/mg protein. Hepatic microsomes of rats treated with β-NF and PB contained 1.3 and 1.5 nmol CYP/mg proteins, respectively.
Incubation mixtures, in a final volume of 500 µl, consisted of 100 mM potassium phosphate buffer (pH 7.4), 10 mM NADPH, 0.5 mg of microsomal protein and 5–50 µM 3-ABA (dissolved in dimethyl sulfoxide, DMSO). The reaction was initiated by adding 3-ABA. Incubations with rat microsomes were carried out at 37 °C for 5–180 minutes. Control incubations were carried out either (1) without the enzymatic system (microsomes) or (2) with microsomes and 3-ABA, but without NADPH. Then, 5 µl of 1 mM phenacetine in methanol was added as an internal standard and 3-ABA and its metabolites were extracted twice with ethyl acetate (2 × 1.5 ml). The extracts were evaporated to dryness; residues were dissolved in 30 µl of methanol and subjected to reverse-phase (RP)-HPLC to evaluate the amounts of residual 3-ABA and its metabolites. […]

rats = test system: rats; set-up: method as in Seidel et al., [2002]; Arlt, [2005]; Nagy et al., [2005]; conditions: intratracheal instillation, ref Seidel et al., [2002], Arlt, [2005], Nagy et al.; cited from earlier work
Salmonella = test system: Salmonella; set-up: method as in Enya et al., [1997]; Seidel et al., [2002]; Arlt, [2005]; conditions: ref Enya et al., [1997]; Seidel et al., [2002]; Arlt, [2005]; cited from earlier work
[3] = test system: Control rat hepatic microsomes (CYPs); test: Inhibition of 3-ABA oxidation by CYPs in hepatic microsomes of untreated (control) rats; assay type: biochemical; conditions: hepatic microsomes from control rats; inhibitor 0.01–0.1 mM, 20 min, 37 °C
Procedure: The study was conducted in accordance with the Regulations for the Care and Use of Laboratory Animals (311/1997, Ministry of Agriculture, Czech Republic), which complies with Declaration of Helsinki.

[4] = test system: Hepatic microsomes from rats pretreated with Phenobarbital (CYP2B); test: Inhibition of 3-ABA oxidation by CYPs in hepatic microsomes of phenobarbital-pretreated rats; assay type: biochemical, rat; conditions: inhibitor 0.01–0.1 mM, 20 min, 37 °C
Procedure: as §1
Incubation mixtures, in a final volume of 500 µl, consisted of 100 mM potassium phosphate buffer (pH 7.4), 10 mM NADPH, 0.5 mg of microsomal protein and 5–50 µM 3-ABA (dissolved in dimethyl sulfoxide, DMSO). The reaction was initiated by adding 3-ABA. Incubations with rat microsomes were carried out at 37 °C for 5–180 minutes. […]
The following chemicals were used to inhibit 3-ABA oxidation in the presence of rat hepatic microsomes: α-naphthoflavone (α-NF), which inhibits CYP1A1 and 1A2, furafylline, which inhibits CYP1A2, diamantane, an inhibitor of CYP2B, sulfophenazole, which inhibits CYP2C and diethyldithiocarbamate, which inhibits CYP2E1 (Rendic and DiCarlo, [1997]). […] After the incubation, 3-ABA and its metabolites were extracted and analyzed by HPLC as described above.

CYP1A1/2 = test: Inhibition of 3-ABA oxidation by CYPs in hepatic microsomes of β-naphthoflavone-pretreated rats; assay type: biochemical; conditions: male, Wistar, rat, liver microsomes from β-naphthoflavone-pretreated rats, pH 7.4, probe 3-ABA (5-50 µM), hepatic microsomes from rats pretreated with β-naphtoflavone (CYP1A1/2), inhibitor 0.01–0.1 mM, 37 °C
Procedure: The HPLC was performed with a reversed phase column (Nucleosil 100-5 C18, Macherey-Nagel, Duren, Germany, 25 cm×4.6 mm, 5 µm) proceeded by a C-18 guard column, using isocratic elution conditions of 70% methanol in distilled water with a flow rate of 0.6 ml/min.
Inhibitors were dissolved in 7.5 µl of methanol or water (in the case of diethyldithiocarbamate), to yield final concentrations of 0.01–0.1 mM in the incubation mixtures. […] After the incubation, 3-ABA and its metabolites were extracted and analyzed by HPLC as described above.

SMILES: Nc1ccc2ccc3cccc4ccc1c2c34 [1-aminopyrene]
Concentration detected in urine [1]: 2–200 ng/24 h urine

SMILES: O=C1c2ccccc2-c2ccc([N+](=O)[O-])c3cccc1c23 [3-NBA, 3-nitro-7H-benz[de]anthracen-7-one]
Carcinogenicity in rats (rats): carcinogenic in rats, causing lung tumours
Mutagenic potency in the Ames Salmonella assay (Salmonella): extremely high mutagenic potency

SMILES: C1C2CC3C4CC5CC(C14)C(C2)C3C5 [Diamantane, diamantane]
IC50 [4]: 0.9 µM

More lines, main results first:

Metabolites formed by oxidation in rat hepatic microsomes [2]: up to three metabolites
SMILES: Nc1ccc2c3c(cccc13)C(=O)c1ccccc1-2 [3-ABA, 3-Aminobenzanthrone]
Concentration detected in urine [1]: 1–143 ng/24 h urine

IC50 [3]: 96.8 µM
SMILES: CCN(CC)C(=S)S [DDTC, diethyldithiocarbamate]

IC50 at 20 min (CYP1A1/2): 16.6 µM
SMILES: Cc1nc2c([nH]1)c(=O)n(C)c(=O)n2Cc1ccco1 [Furafylline, furafylline]

IC50 at 20 min (CYP1A1/2): 10.9 µM
SMILES: O=c1cc(-c2ccccc2)oc2c1ccc1ccccc12 [α-naphtoflavone, α-naphthoflavone]
